What was measured:
Type in all cases: physicochemical
Settings in all cases: lipid:siRNA 25:1
[1] = Particle sizing by dynamic light scattering (DynaPro plate reader), in vitro formulations
Method: (§1) The siRNA concentrations were measured using Quanti-iT RiboGreen RNA reagent (Molecular Probes, (R11490)). Vesicle sizes were characterized by dynamic light scattering with a DynaPro™ Plate Reader (Wyatt Technology) in 96-well half-area UV plate (Coring) after diluting the formulation sample (20 μL) in phosphate buffered saline (80 μL) at a pH of about 7-8. A 1% agarose gel-based assay was used for analyzing nuclease degradation and protection. Encapsulation efficiency (EE) was calculated using data obtained from a RiboGreen assay.
Particle sizes and size distributions (PDI) were characterized by using dynamic light scattering (DLS). A DLS plate reader (Dynapro™, Wyatt Technology) was used for the DLS measurement. This DLS plate reader uses an 830 nm laser and the scattering angle is 158°. It also can control temperature from 4° C. to 70° C. A 96-well format was employed for the samples.
Samples for DLS analysis were prepared by mixing 20 μL of each sample stock solution with 80 μL PBS directly in the 96-well plate (#3697, Corning). Sample mixing was accomplished using a microplate shaker (Orbis, Mikura Ltd.). Plates were read at 20° C. with an acquisition time of 50 seconds for each sample, and data was analyzed with Wyatt Technology's Dynamics V6 software. To rule out potential multiple scattering artifacts, a second plate at 4-fold reduced sample concentrations was independently prepared by mixing 5 μL stock solutions with 95 μL PBS. Under our experimental conditions the results at the two concentrations were very similar, and the final reported result for each sample represents the average of values obtained from the two plates.

[2] = Particle sizing assay (Zetasizer Nano ZS), in vivo formulations
Method: (§2) A round bottom flask was submerged into a 65° C. water bath. Citrate buffer (37.5 ml) of pH 4.0 was pipetted into the flask. The solution was stirred by a magnetic stirring bar at a speed of 900 rpm. Both the pH 4.0 citrate buffer and the lipid solution were pre-warmed in the 65° C. water bath for about 3 minutes. A siRNA solution (0.5 ml) was pipetted into the pH 4.0 citrate buffer. The 12.5 ml lipid mixture solution was injected through a 27 gauge needle into the citrate buffer in about 30 seconds. The needle tip was inserted into the solution during the injection. The resulting solution was stirred for 5 minutes at a speed of 900 rpm. The flask was pulled up from the water bath and a 50 ml pH 7.4 PBS buffer was added into the flask. The final solution was further mixed at a speed of 900 rpm for 5 minutes. For the diafiltration process, a dialysis filter (Millipore, 100K, Cat#PXB100C50) was used to remove ethanol in the above solution. When the volume was reduced to 20 ml during the initial diafiltration, 20 ml of pH 7.4 PBS was added to the sample solution. The diafiltration was continued until the volume was reduced to 20 ml. The diafiltration process was repeated 4 times. The volume of the sample solution was reduced to about 12 ml and pH 7.4 PBS was added to make the final volume of 15 ml. The 15 ml solution was filtered sequentially through the 0.45 and 0.22 μm sterile PVDF membrane filters (Millipore) and immediately transferred into a sterile vial.
For measurements of particle sizes and size distributions (PDI), lipid-based particles were prepared as described above. The particle solution (60 μL) was pipetted into a disposable cuvette (UVette, Eppendorf, cat#952010051) and measured in the “General Purpose” mode. Attenuator and position were optimized by the device. Measurements were performed using a Zetasizer Nano ZS (Malvern Instruments) equipped with a 4 mW He—Ne laser at a wavelength of 633 nm at 25° C. Scattered light was detected at a 173° backward scattering angle. The viscosity and refractive index of water at 25° C. was used for data analysis with the Dispersion Technology Software 5.00 (Malvern Instruments).

[3] = RiboGreen assay of siRNA encapsulation efficiency, in vivo formulations of Lipid-Based Particles
Method: (§3) RNA concentration and encapsulation efficiency were determined using a Quant-iT® Ribogreen RNA reagent and kit available from Invitrogen. The siRNA was released from the Lipid-Based Particle using one of the following reagents: ethanol, Triton X-100, or phenol/chloroform. The siRNA concentration is quantified using fluorescent reading at 480 nm/520 nm.
The lipid solution was prepared (10 mg/ml) by dissolving the lipid in 200 proof ethanol. The lipid mixture solution is prepared according to the above composition in Table 5.
An siRNA (TetR_ODC—12, G.G.G.G.A.A.A.G.C.U.G.G.C.A.A.G.A.U.U.U.U SEQ ID NO: 1) (ThermoFisher) solution is prepared in a concentration of 10 mg/ml by dissolving 10 mg siRNA in 1 ml of DNAse/RNAse-free distilled water.
as §2

[4] = RiboGreen assay of siRNA encapsulation efficiency, in vitro formulations of Lipid-Based Particles
Method: The mixing solution of cationic lipids, cholesterol, non-cationic lipids and PEG-lipids was prepared in ethanol (total concentration at 10 mg/mL). siSTABLE (purchased from ThermoFisher) (sense-5′ GGGGAAAGCUGGCAAGAUUUU-3′SEQ ID NO. 1, antisense-5′-AAUCUUGCCAGCUUUCCCCUU-3′ SEQ ID NO: 2) % stock solution was prepared in 10 mg/mL of solution by dissolving 10 mg siRNA in 1 mL of RNAse-free UltraPure Water. The calculated amount of siRNA solution was added to 1 mL of citrate buffer (pH 4.0, 20 mM), to provide an siRNA concentration of 0.2 mg/mL, and warmed to 60 C. The calculated amount of lipid solution was warmed to 60 C, transferred to a 0.5 mL syringe with 28½ gauge needle, and injected into the citrate buffer with stirring at 60 C. After 3 minutes, 3 mL of PBS solution at room temperature (pH 7.4) was added into the lipid mixture with stirring. The Lipid-Based Particle solution was cooled to room temperature.
as §1, §3

[5] = in vitro formulation b: Cationic lipid/PEG-cholesterol/DSPC/Chol 45/10/15/30 wt %
[6] = in vivo formulation A: Cationic lipid/Example 73/DSPC/Chol 45/10/15/30 wt %
[7] = in vitro formulation a: Cationic lipid/Example 73/DSPC/Chol 45/10/15/30 wt %
[8] = in vivo formulation I: Cationic lipid/PEG-DPPE/DSPC/Chol 45/10/15/30 wt %
[9] = in vivo formulation J: Cationic lipid/PEG-DSPE/DSPC/Chol 45/10/15/30 wt %
[10] = in vivo formulation L: Cationic lipid/PEG-DPG/DSPC/Chol 45/10/15/30 wt %

SMILES: CCCCC/C=C\C/C=C\CCCCCCCCOCC(CCN1CCCCC1)OCCCCCCCC/C=C\C/C=C\CCCCC (stereo not shown) [Example 1, 1-{3,4-bis[(9Z,12Z)-octadeca-9,12-dienyloxy]butyl}piperidine]
- Size [1, 5]: 96.3 nm
- Size [2, 6]: 108 nm
- Size distribution (PDI) [2, 6]: (0.18)
- % Encapsulation Efficiency [3, 6]: 74%

SMILES: CCCCC/C=C\C/C=C\CCCCCCCCOCC(CCN(CC)CC)OCCCCCCCC/C=C\C/C=C\CCCCC (stereo not shown) [Example 3, N,N-diethyl-3,4-bis[(9Z,12Z)-octadeca-9,12-dienyloxy]butan-1-amine]
- % Encapsulation Efficiency [4, 7]: 97.2%
- % Encapsulation Efficiency [4, 5]: 96.9%
- Size [1, 7]: 192 nm
- Size [1, 5]: 113.4 nm
- Size [2, 6]: 116 nm
- Size distribution (PDI) [2, 6]: (0.12)

SMILES: CCCCC/C=C\C/C=C\CCCCCCCCOCC(CCN(C)C)OCCCCCCCC/C=C\C/C=C\CCCCC (stereo not shown) [Example 4, N,N-dimethyl-3,4-bis[(9Z,12Z)-octadeca-9,12-dienyloxy]butan-1-amine]
- % Encapsulation Efficiency [4, 5]: 97.5%
- Size [1, 5]: 136.6 nm

SMILES: CCCCC/C=C\C/C=C\CCCCCCCCOCC(CCN1CCN(c2ccccc2)CC1)OCCCCCCCC/C=C\C/C=C\CCCCC (stereo not shown) [Example 5, 1-{3,4-bis[(9Z,12Z)-octadeca-9,12-dienyloxy]butyl}-4-phenylpiperazine]
- Size [1, 7]: 157 nm
- Size distribution (PDI) [1, 7]: 0.070

SMILES: CCCCC/C=C\C/C=C\CCCCCCCCOCC(CCN1CCN(C)CC1)OCCCCCCCC/C=C\C/C=C\CCCCC (stereo not shown) [Example 6, 1-{3,4-bis[(9Z,12Z)-octadeca-9,12-dienyloxy]butyl}-4-methylpiperazine]
- Size [1, 7]: 178 nm
- Size distribution (PDI) [1, 7]: 0.16

SMILES: CCCCC/C=C\C/C=C\CCCCCCCCOCC(CCN1CCN(c2ccccc2OC)CC1)OCCCCCCCC/C=C\C/C=C\CCCCC (stereo not shown) [Example 8, 1-{3,4-bis[(9Z,12Z)-octadeca-9,12-dienyloxy]butyl}-4-(2-methoxyphenyl)piperazine]
- Size [1, 7]: 130 nm

SMILES: CCCCC/C=C\C/C=C\CCCCCCCCOCC(CCN(C)CCc1ccccn1)OCCCCCCCC/C=C\C/C=C\CCCCC (stereo not shown) [Example 10, N-{3,4-bis[(9Z,12Z)-octadeca-9,12-dienyloxy]butyl}-N-methyl-N-(2-pyridin-2-ylethyl)amine]
- Size [1, 7]: 161 nm
- Size distribution (PDI) [1, 7]: 0.168

SMILES: CCCCC/C=C\C/C=C\CCCCCCCCOCC(CCN(C)Cc1ccccc1)OCCCCCCCC/C=C\C/C=C\CCCCC (stereo not shown) [Example 11, N-benzyl-N-{3,4-bis[(9Z,12Z)-octadeca-9,12-dienyloxy]butyl}-N-methylamine]
- Size [1, 7]: 154 nm
- Size distribution (PDI) [1, 7]: 0.2

SMILES: CCCCC/C=C\C/C=C\CCCCCCCCOCC(CCN1CCC(N(C)C)CC1)OCCCCCCCC/C=C\C/C=C\CCCCC (stereo not shown) [Example 16, 1-{3,4-bis[(9Z,12Z)-octadeca-9,12-dienyloxy]butyl}-N,N-dimethylpiperidin-4-amine]
- Size [1, 7]: 70.9 nm

SMILES: CCCCC/C=C\C/C=C\CCCCCCCCOCC(CCN(CCOC)CCOC)OCCCCCCCC/C=C\C/C=C\CCCCC (stereo not shown) [Example 18, N,N-bis(2-methoxyethyl)-3,4-bis [(9Z,12Z)-octadeca-9,12-dienyloxy]butan-1-amine]
- % Encapsulation Efficiency [4, 7]: 94.1%
- Size [1, 7]: 104 nm

SMILES: CCCCC/C=C\C/C=C\CCCCCCCCOCC(CCN1CCC(OC)CC1)OCCCCCCCC/C=C\C/C=C\CCCCC (stereo not shown) [Example 19, 1-{3,4-bis[(9Z,12Z)-octadeca-9,12-dienyloxy]butyl}-4-methoxypiperidine]
- % Encapsulation Efficiency [4, 7]: 94.2%
- Size [1, 7]: 152 nm

SMILES: CCCCC/C=C\C/C=C\CCCCCCCCOC[C@@H](CCN1CCCC1)OCCCCCCCC/C=C\C/C=C\CCCCC [Example 20, 1-{(3R)-3,4-bis[(9Z,12Z)-octadeca-9,12-dienyloxy]butyl}pyrrolidine]
- % Encapsulation Efficiency [4, 7]: 97.2%
- Size [1, 7]: 146 nm
- Size [2, 6]: 100 nm
- Size distribution (PDI) [2, 6]: (0.09)

SMILES: CCCCC/C=C\C/C=C\CCCCCCCCOC[C@H](CCN1CCCC1)OCCCCCCCC/C=C\C/C=C\CCCCC [Example 21, 1-{(3S)-3,4-bis[(9Z,12Z)-octadeca-9,12-dienyloxy]butyl}pyrrolidine]
- % Encapsulation Efficiency [4, 7]: 96.9%
- Size [1, 7]: 128 nm
- Size [2, 6]: 103 nm
- Size distribution (PDI) [2, 6]: (0.06)

SMILES: CCCCC/C=C\C/C=C\CCCCCCCCOC[C@@H](CCN(CC)CC)OCCCCCCCC/C=C\C/C=C\CCCCC [Example 22, N-{(3R)-3,4-bis[(9Z,12Z)-octadeca-9,12-dienyloxy]butyl}-N,N-diethylamine]
- % Encapsulation Efficiency [4, 7]: 86%
- Size [1, 7]: 130 nm

SMILES: CCCCC/C=C\C/C=C\CCCCCCCCOC[C@H](CCN(CC)CC)OCCCCCCCC/C=C\C/C=C\CCCCC [Example 23, N-{(3S)-3,4-bis[(9Z,12Z)-octadeca-9,12-dienyloxy]butyl}-N,N-diethylamine]
- % Encapsulation Efficiency [4, 7]: 97.2%
- Size [1, 7]: 128 nm

SMILES: CCCCC/C=C\C/C=C\CCCCCCCCOCC(CCOCCN1CCN(C)CC1)OCCCCCCCC/C=C\C/C=C\CCCCC (stereo not shown) [Example 28, 1-(2-{3,4-bis[(9Z,12Z)-octadeca-9,12-dienyloxy]butoxy}ethyl)-4-methylpiperazine]
- % Encapsulation Efficiency [4, 5]: 94.3%
- Size [2, 8]: 107.1 nm
- Size distribution (PDI) [2, 8]: (0.025)
- Size [2, 9]: 80.2 nm
- Size distribution (PDI) [2, 9]: (0.026)
- Size [2, 10]: 87 nm
- Size distribution (PDI) [2, 10]: (0.012)
- % Encapsulation Efficiency [3, 8]: 99%
- % Encapsulation Efficiency [3, 9]: 99%
- % Encapsulation Efficiency [3, 10]: 99%

SMILES: CCCCC/C=C\C/C=C\CCCCCCCCOCC(CCOCCN1CCCC1)OCCCCCCCC/C=C\C/C=C\CCCCC (stereo not shown) [Example 31, 1-(2-{3,4-bis[(9Z,12Z)-octadeca-9,12-dienyloxy]butoxy}ethyl)pyrrolidine]
- % Encapsulation Efficiency [4, 5]: 96.2%
- Size [2, 6]: 136 nm
- Size distribution (PDI) [2, 6]: (0.0923)
- % Encapsulation Efficiency [3, 6]: 93.3%

Source: patent US20100055169A1, “CATIONIC LIPIDS AND USES THEREOF” (ABBOTT LABORATORIES, priority 2008, published 2010)
